Measurements taken from US11564913B2, “Compositions and methods for treating cancer” (Children's Hospital Medical Center, priority 2019, dated 2023).

Key:
[1] = tested on: T47D cells; assay: Cell spreading on fibronectin; assay type: cell-based; settings: 0-3 μM, 30 min
Procedure: (§1) FIG. 6: IODVA1 inhibits cell-substratum and cell-cell interactions. (A) IODVA1 impedes spreading of MCF7 and MDA-MB-231 cells on fibronectin. MCF7, T47D, and MDA-MB-231 cells were incubated on fibronectin coated coverslips for 10 min, then further incubated with the indicated concentrations of IODVA1 for 30 min in serum-free media, fixed and observed by bright field microscopy. Areas of single cells were calculated from 6 random fields (no less than 300 cells total per treatment group). Results shown are mean±s.e.m. of a single experiment and are representative of three independent experiments. (B) Effects of IODVA1 treatment on spheroid formation in MCF10A, MCF7, T47D, and MDA-MB-231 cells. […] Aggregates and spheroids were dissociated with accutase and trituration, and the number of live cells was determined by trypan blue exclusion. […]
(§2) Applicants assessed if IODVA1 interferes with cell spreading on the extracellular matrix, an event that is also governed by the rearrangement of the actin cytoskeleton. […] No changes in the area in T47D cells were detected, although more rounded cells in the presence of IODVA1 were observed.
(§3) For cell spreading, MDA-MB-231, MCF7 and T47D were seeded on fibronectin-coated coverslips in serum-free media. […] Six random fields were imaged under 20× objective and cell area of individual cells were quantified to assess the degree of spreading (ImageJ). […]

[2] = tested on: MCF7 cells; assay: Cell spreading on fibronectin; assay type: cell-based; settings: 30 min exposure, serum-free
Procedure: as §1, §2, §3

[3] = tested on: pPAK4(S474)/pPAK5(S602)/PAK6(S560) in MDA-MB-231 cells; assay: pPAK immunoblot; assay type: cell-based, human; settings: 0.3 and 1 μM, up to 3 h incubation
[4] = tested on: Vav3−/− p190-BCR-ABL leukemia; assay: Vav3−/− p190-BCR-ABL leukemic mice, osmotic pumps; assay type: in vivo
Procedure: FIG. 14: IODVA1 targets Vav3 in vitro and in vivo. (A) Ba/F3 cells expressing empty vector Mieg3 or p190-BCR-ABL1 were treated with vehicle control or IODVA1 (IO1, 3 μM) for 30 min and incubated with GST-Rac and glutathione beads. Beads were washed and the protein complexes were separated on SDS-PAGE and immunoblotted for pVav3. Input Vav3 was used as control. (B) Binding affinity (Kd) between IODVA1 and Vav3 (green), LARG (brown), and RacGDP (blue). […] Error bars=SD; N=3. (C) Quantification of the average number of colonies made by bone marrow wild-type (black) and Vav3^−/− (lilac) p190-BCR-ABL1 leukemic cells treated with vehicle control or IODVA1 (IO1, 1 and 3 μM) (* p≤0.05; ** p≤0.01; *** p≤0.001; ns, not significant). (D) Representative histogram data of the cell cycle analysis of wild-type (black and grey bars) and Vav3^−/− (dark and light lilac) bone marrow cells expressing p190-BCR-ABL and treated with vehicle control or IODVA1 (IO1, 3 μM) for 20 h. (E) Quantification by densitometry of the pVav3 band from FIG. 14A. (F) Kaplan-Meier plot showing survival of wild-type or Vav3^−/− p190-BCR-ABL1 leukemic mice post-treatment with osmotic pumps implanted subcutaneously and carrying vehicle control or IODVA1 (IO1, 1 mM). (G) Count (% leukemic progenitors in peripheral blood) of residual leukemic (EGFP^+-BCR-ABL1) cells at week 1 and 2 post-treatment for mice from (F). […]

In the case of `OC1(c2ccccn2)N=C(Nc2nc3ccccc3[nH]2)N=C1c1ccccn1` (stereo not shown) [IODVA1, (Z)-2-((1H-benzo[d]imidazol-2-yl)imino)-4,5-di(pyridin-2-yl)-2,5-dihydro-1H-imidazol-5-ol], the “changes in cell area” value [1] is reported as “No changes”, the “concentration at which spreading is interfered with (decrease in cell area)” value [2] is reported as 0.3 µM and the “levels of pPAK4/5/6” value [3] is reported as “did not change”. The “response (survival) of Vav3−/− leukemic mice” value [4] was “did not respond”.
